# How the values were obtained:
# Assay in all cases: biochemical
# Parameters in all cases: Upstate KinaseProfiler in vitro kinase activity assay, per cent of DMSO control
# Conditions in all cases: read-out: Activity (% of Control)
# ALK(h) = ALK(h) (Homo sapiens, UniProt Q9UM73)
# Experimental: (§1) Kinase profile and kinase assay. A Kinase profile against 100 kinases listed for resveratrol at 20 μM was generated utilizing Upstate's KinaseProfiler™ service. Assay protocols for each kinase are available from Upstate (Lake Placid, NY). In vitro kinase assay was performed as described previously. Briefly, HEK293 cells were transfected with HA-S6K1 wt, HA-S6K1 K100R, or vector as indicated. Cells were treated with 1 μg/ml insulin for 10 minutes prior to harvesting in PBS + 0.5% NP-40 + protease and phosphatase inhibitors. 125 μg of lysate per sample was immunoprecipitated using 0.5 μg/sample of anti-HA High-Affinity (Roche, Basel Switzerland). Beads from immunoprecipitations were washed three times in lysis buffer and once in kinase buffer, and kinase assays were performed with recombinant GST-S6 as substrate (1 μg per assay). In the indicated lanes varying doses of resveratrol or DMSO control were added to the reaction prior to addition of the GST-S6 substrate. All samples were subjected to SDS-PAGE, and 32P incorporation was quantified by using a Bio-Rad (Hercules, CA) Phosphor-Imager and subsequent analysis with ImageJ (NIH).  Figure 4. Resveratrol inhibits S6K1 in vitro. (A) Structural similarity between resveratrol and quercetin, a known kinase inhibitor. (B) Kinase inhibition profile for resveratrol at 20 μM obtained using KinaseProfiler™ (Upstate). Dashed line represents 100% activity as compared to control. Black filled-in bar on the graph indicates S6K1. Complete data set is provided in Supplementary Table 1. Error bars represent s.d.m. (C) Phosphorylation of recombinant GST-tagged S6 by immunoprecipitated HA-S6K1 under increasing concentrations of resveratrol (Res). Autoradiograph depicts S6K1 phosphorylation of GST-S6. (D) Average of three separate kinase assay experiments as performed in (C). Densitometry was performed using NIH ImageJ. Error bars represent s.e.m. […] Therefore, we hypothesized that the effect of resveratrol on autophagy could be related to inhibition of one or more upstream kinases. To test this, we performed an in vitro kinase screen and determined an inhibition profile for resveratrol. […] With the exception of S6K1, these kinases play primary roles in the hematopoietic system, and were thus viewed as unlikely to have been responsible for the effect we were studying. […] On the other hand, S6K1 is known to play a requisite role in the regulation of autophagy in Drosophila, making it a promising candidate for the in vivo target of resveratrol that is responsible for inhibition of autophagy.
# ALK4(h) = target: T1, ALK4(h) (Homo sapiens, UniProt P36896)
# T1 construct: gene ACVR1B
# T1 sequence (P36896 whole entry): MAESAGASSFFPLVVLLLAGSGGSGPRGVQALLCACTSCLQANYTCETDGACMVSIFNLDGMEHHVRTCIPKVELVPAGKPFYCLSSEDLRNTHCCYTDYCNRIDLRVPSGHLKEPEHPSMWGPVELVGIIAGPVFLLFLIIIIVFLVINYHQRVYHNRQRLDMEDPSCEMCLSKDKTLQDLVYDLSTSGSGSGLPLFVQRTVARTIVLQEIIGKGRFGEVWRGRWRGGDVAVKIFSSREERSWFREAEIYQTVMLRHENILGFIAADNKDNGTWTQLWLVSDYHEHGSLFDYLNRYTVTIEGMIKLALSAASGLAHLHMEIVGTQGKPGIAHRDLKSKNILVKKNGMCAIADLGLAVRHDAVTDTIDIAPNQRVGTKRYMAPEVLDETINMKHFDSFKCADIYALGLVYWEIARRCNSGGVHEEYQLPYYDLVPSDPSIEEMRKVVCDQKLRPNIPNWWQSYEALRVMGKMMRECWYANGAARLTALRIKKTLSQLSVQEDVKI
# Experimental: as §1
# CHK2(h) = target: T2, CHK2(h) (Homo sapiens, UniProt O96017)
# T2 construct: gene CHEK2
# T2 sequence (O96017 whole entry): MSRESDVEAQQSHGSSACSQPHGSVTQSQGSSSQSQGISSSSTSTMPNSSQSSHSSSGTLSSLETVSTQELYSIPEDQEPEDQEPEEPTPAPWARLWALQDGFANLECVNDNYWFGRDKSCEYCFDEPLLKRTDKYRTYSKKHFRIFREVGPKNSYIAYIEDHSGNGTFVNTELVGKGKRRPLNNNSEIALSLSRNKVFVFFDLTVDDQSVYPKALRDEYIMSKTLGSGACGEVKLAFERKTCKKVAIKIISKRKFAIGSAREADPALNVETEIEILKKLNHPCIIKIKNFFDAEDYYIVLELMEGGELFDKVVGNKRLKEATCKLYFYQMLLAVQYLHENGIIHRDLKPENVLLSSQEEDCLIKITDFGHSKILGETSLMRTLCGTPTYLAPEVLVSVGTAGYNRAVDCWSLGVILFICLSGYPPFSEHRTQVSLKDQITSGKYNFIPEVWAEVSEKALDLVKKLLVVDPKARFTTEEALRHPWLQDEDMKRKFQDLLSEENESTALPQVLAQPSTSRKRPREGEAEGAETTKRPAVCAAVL
# Experimental: as §1
# DAPK2(h) = DAPK2(h) (Homo sapiens, UniProt Q9UIK4)
# Experimental: as §1
# EphB2(h) = EphB2(h) (Homo sapiens, UniProt P29323)
# Experimental: as §1
# Fgr(h) = Fgr(h) (Homo sapiens, UniProt P09769)
# Sequence of Fgr(h) (P09769 whole entry): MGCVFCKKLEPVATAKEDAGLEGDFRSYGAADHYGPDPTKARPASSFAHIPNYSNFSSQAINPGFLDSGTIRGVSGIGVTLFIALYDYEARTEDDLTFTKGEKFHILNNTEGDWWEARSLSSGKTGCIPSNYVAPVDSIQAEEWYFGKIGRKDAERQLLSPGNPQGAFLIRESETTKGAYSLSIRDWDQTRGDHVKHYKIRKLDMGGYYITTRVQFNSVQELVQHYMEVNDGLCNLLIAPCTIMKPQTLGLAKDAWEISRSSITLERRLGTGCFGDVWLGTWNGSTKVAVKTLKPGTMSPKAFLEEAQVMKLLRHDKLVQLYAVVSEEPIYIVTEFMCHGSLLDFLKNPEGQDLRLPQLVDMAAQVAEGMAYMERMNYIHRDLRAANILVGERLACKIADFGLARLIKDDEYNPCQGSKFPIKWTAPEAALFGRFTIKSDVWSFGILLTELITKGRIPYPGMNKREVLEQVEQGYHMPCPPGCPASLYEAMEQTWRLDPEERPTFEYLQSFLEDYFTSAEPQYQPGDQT
# Experimental: as §1
# Flt1(h) = Flt1(h) (Homo sapiens, UniProt P17948)
# Sequence of Flt1(h) (P17948 whole entry): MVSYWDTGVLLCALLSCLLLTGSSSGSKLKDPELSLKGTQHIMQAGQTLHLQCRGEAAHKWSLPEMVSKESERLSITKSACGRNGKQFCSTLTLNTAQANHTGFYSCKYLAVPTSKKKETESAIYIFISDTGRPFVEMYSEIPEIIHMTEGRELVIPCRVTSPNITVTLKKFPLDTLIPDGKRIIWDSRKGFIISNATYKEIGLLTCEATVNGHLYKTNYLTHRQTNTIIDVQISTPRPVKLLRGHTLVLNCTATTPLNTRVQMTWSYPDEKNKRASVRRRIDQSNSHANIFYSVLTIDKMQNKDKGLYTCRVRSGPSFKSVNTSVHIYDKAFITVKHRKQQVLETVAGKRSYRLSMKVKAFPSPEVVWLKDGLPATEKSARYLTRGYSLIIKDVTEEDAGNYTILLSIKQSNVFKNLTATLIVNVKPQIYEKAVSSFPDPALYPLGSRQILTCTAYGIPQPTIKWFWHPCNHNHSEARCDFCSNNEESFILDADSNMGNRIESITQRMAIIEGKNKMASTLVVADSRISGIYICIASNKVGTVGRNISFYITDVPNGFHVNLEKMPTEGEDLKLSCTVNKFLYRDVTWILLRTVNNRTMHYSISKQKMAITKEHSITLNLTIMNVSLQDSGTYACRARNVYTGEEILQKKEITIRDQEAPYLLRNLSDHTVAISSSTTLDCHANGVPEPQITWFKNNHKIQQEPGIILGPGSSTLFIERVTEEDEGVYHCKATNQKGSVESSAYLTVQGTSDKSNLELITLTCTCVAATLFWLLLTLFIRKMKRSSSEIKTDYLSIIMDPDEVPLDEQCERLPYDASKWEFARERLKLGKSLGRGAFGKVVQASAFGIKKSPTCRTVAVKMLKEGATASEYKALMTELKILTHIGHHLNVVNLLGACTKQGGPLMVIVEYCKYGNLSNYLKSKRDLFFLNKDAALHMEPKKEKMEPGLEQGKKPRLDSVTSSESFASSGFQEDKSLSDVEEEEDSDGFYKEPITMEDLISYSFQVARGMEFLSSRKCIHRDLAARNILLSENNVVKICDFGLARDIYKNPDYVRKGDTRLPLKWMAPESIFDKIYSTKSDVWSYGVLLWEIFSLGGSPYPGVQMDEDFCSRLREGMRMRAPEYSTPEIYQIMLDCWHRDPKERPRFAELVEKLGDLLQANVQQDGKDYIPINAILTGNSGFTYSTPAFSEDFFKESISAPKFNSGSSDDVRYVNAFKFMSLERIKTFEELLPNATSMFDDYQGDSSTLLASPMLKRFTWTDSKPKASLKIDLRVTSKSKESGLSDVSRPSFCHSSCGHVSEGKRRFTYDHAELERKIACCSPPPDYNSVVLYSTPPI
# Experimental: as §1
# GSK3α(h) = target: T3, GSK3α(h) (Homo sapiens, UniProt P49840)
# T3 construct: gene GSK3A
# T3 sequence (P49840 whole entry): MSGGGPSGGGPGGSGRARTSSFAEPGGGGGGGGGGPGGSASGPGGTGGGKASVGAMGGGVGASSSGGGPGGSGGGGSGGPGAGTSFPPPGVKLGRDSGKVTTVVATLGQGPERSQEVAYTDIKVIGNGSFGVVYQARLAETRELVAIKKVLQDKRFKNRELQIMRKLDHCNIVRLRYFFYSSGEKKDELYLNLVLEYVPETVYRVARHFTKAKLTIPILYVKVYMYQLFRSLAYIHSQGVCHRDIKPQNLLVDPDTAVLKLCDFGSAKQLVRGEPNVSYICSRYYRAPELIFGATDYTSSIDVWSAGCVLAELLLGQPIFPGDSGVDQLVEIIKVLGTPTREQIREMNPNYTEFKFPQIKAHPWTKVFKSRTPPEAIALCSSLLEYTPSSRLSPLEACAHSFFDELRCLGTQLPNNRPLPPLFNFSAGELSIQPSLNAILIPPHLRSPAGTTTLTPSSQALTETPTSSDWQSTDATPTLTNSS
# Experimental: as §1
# IR(h) = target: T4, IR(h) (Homo sapiens, UniProt P06213)
# T4 construct: gene INSR
# Experimental: as §1
# NEK6(h) = NEK6(h) (Homo sapiens, UniProt Q9HC98)
# Experimental: as §1
# NEK7(h) = NEK7(h) (Homo sapiens, UniProt Q8TDX7)
# Sequence of NEK7(h) (Q8TDX7 whole entry): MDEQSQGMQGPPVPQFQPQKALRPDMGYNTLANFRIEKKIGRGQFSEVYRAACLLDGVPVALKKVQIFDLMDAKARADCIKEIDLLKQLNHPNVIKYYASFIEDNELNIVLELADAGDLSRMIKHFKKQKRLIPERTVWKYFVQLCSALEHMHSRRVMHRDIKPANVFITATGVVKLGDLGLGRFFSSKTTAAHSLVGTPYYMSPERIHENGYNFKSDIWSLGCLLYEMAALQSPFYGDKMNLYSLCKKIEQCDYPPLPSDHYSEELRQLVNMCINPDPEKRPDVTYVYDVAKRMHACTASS
# Experimental: as §1
# PAK3(h) = PAK3(h) (Homo sapiens, UniProt O75914)
# Experimental: as §1
# PKBα(h) = target: T5, PKBα(h) (Homo sapiens, UniProt P31749)
# T5 construct: gene AKT1
# T5 sequence (P31749 whole entry): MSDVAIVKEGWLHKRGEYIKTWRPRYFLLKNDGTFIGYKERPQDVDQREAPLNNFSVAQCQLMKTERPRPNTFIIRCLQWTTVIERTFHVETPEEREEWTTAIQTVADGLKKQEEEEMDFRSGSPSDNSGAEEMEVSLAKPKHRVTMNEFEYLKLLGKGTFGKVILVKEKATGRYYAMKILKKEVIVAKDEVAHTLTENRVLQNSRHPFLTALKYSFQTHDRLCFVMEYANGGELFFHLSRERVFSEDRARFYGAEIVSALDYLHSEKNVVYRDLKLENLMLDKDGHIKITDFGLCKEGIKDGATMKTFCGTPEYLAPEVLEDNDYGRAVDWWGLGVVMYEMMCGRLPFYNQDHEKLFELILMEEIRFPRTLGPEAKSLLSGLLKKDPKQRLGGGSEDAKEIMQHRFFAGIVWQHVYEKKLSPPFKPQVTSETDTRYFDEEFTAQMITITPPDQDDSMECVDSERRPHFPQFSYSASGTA
# Experimental: as §1
# PKCßI(h) = target: T6, PKCßI(h) (Homo sapiens, UniProt P05771)
# T6 construct: gene PRKCB; isoform beta I
# Experimental: as §1
# SAPK2a(T106M)(h) = target: T7, SAPK2a(T106M)(h) (Homo sapiens, UniProt Q16539, T106M)
# T7 construct: gene MAPK14
# T7 sequence (Q16539 whole entry T106M): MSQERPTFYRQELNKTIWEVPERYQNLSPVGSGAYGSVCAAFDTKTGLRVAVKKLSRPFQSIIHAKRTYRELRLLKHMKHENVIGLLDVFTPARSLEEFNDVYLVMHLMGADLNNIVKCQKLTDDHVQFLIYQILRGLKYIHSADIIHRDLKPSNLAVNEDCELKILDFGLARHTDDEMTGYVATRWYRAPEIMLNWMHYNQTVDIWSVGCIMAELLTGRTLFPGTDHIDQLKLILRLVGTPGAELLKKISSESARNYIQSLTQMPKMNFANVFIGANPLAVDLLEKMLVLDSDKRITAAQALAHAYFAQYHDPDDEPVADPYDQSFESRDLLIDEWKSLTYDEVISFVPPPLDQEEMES
# Experimental: as §1
# SAPK3(h) = target: T8, SAPK3(h) (Homo sapiens, UniProt P53778)
# T8 construct: gene MAPK12
# Experimental: as §1
# SGK2(h) = SGK2(h) (Homo sapiens, UniProt Q9HBY8)
# Sequence of SGK2(h) (Q9HBY8 whole entry): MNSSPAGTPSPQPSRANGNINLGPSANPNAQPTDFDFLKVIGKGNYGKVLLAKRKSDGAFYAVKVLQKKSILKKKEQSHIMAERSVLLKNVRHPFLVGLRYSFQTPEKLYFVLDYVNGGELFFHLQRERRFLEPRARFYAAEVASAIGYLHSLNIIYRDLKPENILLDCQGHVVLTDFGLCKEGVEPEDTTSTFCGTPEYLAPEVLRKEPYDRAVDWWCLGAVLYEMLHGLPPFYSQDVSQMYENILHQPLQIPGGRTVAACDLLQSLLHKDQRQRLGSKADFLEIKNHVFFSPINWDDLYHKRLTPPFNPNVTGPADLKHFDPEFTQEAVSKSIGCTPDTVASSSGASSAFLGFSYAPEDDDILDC
# Experimental: as §1
# TBK1(h) = TBK1(h) (Homo sapiens, UniProt Q9UHD2)
# Experimental: as §1
smiles,measurement,setting,value
"Oc1ccc(/C=C/c2cc(O)cc(O)c2)cc1 [Res, resveratrol]",remaining activity at 20 µM,ALK(h),39%
same,remaining activity at 20 µM,ALK4(h),110 ± 3%
same,remaining activity at 20 µM,CHK2(h),59 ± 6%
same,remaining activity at 20 µM,DAPK2(h),67 ± 7%
same,remaining activity at 20 µM,EphB2(h),113 ± 1%
same,remaining activity at 20 µM,Fgr(h),78 ± 5%
same,remaining activity at 20 µM,Flt1(h),52 ± 1%
same,remaining activity at 20 µM,GSK3α(h),79 ± 4%
same,remaining activity at 20 µM,IR(h),71 ± 5%
same,remaining activity at 20 µM,NEK6(h),140 ± 16%
same,remaining activity at 20 µM,NEK7(h),116 ± 2%
same,remaining activity at 20 µM,PAK3(h),46%
same,remaining activity at 20 µM,PKBα(h),94 ± 2%
same,remaining activity at 20 µM,PKCßI(h),103 ± 5%
same,remaining activity at 20 µM,SAPK2a(T106M)(h),102 ± 2%
same,remaining activity at 20 µM,SAPK3(h),110 ± 5%
same,remaining activity at 20 µM,SGK2(h),70 ± 1%
same,remaining activity at 20 µM,TBK1(h),62 ± 4%

# From PMC2806030, “Inhibition of mammalian S6 kinase by resveratrol suppresses autophagy” (Aging (Albany NY), 2009)
